Key:
[1] = target: T1, human adenosine A1 receptor (Homo sapiens, UniProt P30542); assay: Adenosine A1 Receptor Functional Assay (A1GAL2); format: cell-based; details: CHO-K1 cells overexpressing human A1 receptor, cAMP inducible beta-galactosidase reporter, 4 nM r-PIA/1 uM Forskolin agonist challenge
T1 construct: expressed in transfected cells; host or cells: CHO-K1 cells with a cAMP inducible beta-galactosidase reporter gene
T1 sequence (P30542 1-326): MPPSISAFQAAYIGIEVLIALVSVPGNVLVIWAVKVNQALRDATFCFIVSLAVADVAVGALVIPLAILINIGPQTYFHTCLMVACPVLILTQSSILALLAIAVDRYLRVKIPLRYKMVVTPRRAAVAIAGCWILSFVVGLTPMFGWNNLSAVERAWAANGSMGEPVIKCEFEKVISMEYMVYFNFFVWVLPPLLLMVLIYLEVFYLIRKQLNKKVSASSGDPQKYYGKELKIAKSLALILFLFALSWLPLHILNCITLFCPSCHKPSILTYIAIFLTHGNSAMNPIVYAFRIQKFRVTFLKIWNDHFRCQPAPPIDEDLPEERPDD
Description: Adenosine A1 Receptor Functional Assay (A1GAL2)
To initiate the functional assay, cryopreserved CHO—K1 cells overexpressing the human adenosine A1 receptor and containing a cAMP inducible beta-galactosidase reporter gene were thawed, centrifuged, DMSO containing media removed, and then seeded with fresh culture media into clear 384-well tissue culture treated plates (BD #353961) at a concentration of 10K cells/well. Prior to assay, these plates were cultured for two days at 37° C., 5% CO2, 90% Rh. On the day of the functional assay, culture media was removed and replaced with 45 μL assay medium (Hams/F-12 Modified (Mediatech # 10-080CV) supplemented w/0.1% BSA). Test compounds were diluted and 11 point curves created at a 1000× concentration in 100% DMSO. Immediately after addition of assay media to the cell plates, 50 nL of the appropriate test compound antagonist or agonist control curves were added to cell plates using a Cartesian Hummingbird. Compound curves were allowed to incubate at room temperature on cell plates for approximately 15 minutes before addition of a 4 nM r-PIA (Sigma P4532)/1 uM Forskolin (Sigma F3917) agonist challenge (5 μL volume). A control curve of r-PIA in1 uM Forskolin, a DMSO/Media control, and a single dose of Forskolin were also included on each plate. After additions, cell plates were allowed to incubate at 37° C., 5% CO2, 90% Rh for 5.5-6 hours. After incubation, media was removed, and cell plates were washed 1×50 μL with DPBS w/o Ca & Mg (Mediatech 21-031-CV). Into dry wells, 20 μL of 1×Reporter Lysis Buffer (Promega E3971 (diluted in dH2O from 5× stock)) was added to each well and plates frozen at −20° C. overnight. For β-galactosidase enzyme colorimetric assay, plates were thawed out at room temperature and 20 μL 2×assay buffer (Promega) was added to each well. Color was allowed to develop at 37° C., 5% CO2, 90% Rh for 1-1.5 h or until reasonable signal appeared. The colorimetric reaction was stopped with the addition of 60 μL/well 1M sodium carbonate. Plates were counted at 405 nm on a SpectraMax Microplate Reader (Molecular Devices). Data was analyzed in Microsoft Excel and IC/EC50 curves were fit using a standardized macro.

[2] = target: T2, human adenosine A2A receptor (Homo sapiens, UniProt P29274); assay: Adenosine A2A Receptor Functional Assay (A2A GAL2); format: cell-based; details: for IC50: CHO-K1 cells overexpressing human A2A receptor, cAMP inducible beta-galactosidase reporter, 15 nM NECA agonist challenge, read-out: A2AGal2; for A1/A2A: ratio of A1Gal2 to A2AGal2 values
T2 construct: expressed in transfected cells; host or cells: CHO-K1 cells with a cAMP inducible beta-galactosidase reporter gene
T2 sequence (P29274 whole entry): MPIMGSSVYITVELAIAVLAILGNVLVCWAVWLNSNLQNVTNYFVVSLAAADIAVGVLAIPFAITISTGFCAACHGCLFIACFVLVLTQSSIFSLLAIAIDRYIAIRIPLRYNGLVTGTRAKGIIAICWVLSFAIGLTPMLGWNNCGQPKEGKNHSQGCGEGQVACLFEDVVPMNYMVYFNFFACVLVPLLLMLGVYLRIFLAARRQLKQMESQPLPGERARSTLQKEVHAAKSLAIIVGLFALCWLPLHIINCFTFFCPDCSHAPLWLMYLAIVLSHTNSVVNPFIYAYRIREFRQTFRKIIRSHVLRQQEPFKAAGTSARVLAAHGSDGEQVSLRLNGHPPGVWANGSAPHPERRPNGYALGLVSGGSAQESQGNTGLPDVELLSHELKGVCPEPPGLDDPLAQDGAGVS
Description: Adenosine A2A Receptor Functional Assay (A2A GAL2)
To initiate the functional assay, cryopreserved CHO—K1 cells overexpressing the human adenosine A2A receptor and containing a cAMP inducible beta-galactosidase reporter gene were thawed, centrifuged, DMSO containing media removed, and then seeded with fresh culture media into clear 384-well tissue culture treated plates (BD #353961) at a concentration of 10K cells/well. Prior to assay, these plates were cultured for two days at 37° C., 5% CO2, 90% Rh. On the day of the functional assay, culture media was removed and replaced with 45 μL assay medium (Hams/F-12 Modified (Mediatech # 10-080CV) supplemented w/0.1% BSA). Test compounds were diluted and 11 point curves created at a 1000× concentration in 100% DMSO. Immediately after addition of assay media to the cell plates, 50 nL of the appropriate test compound antagonist or agonist control curves were added to cell plates using a Cartesian Hummingbird. Compound curves were allowed to incubate at room temperature on cell plates for approximately 15 minutes before addition of a 15 nM NECA (Sigma E2387) agonist challenge (5 μL volume). A control curve of NECA, a DMSO/Media control, and a single dose of Forskolin (Sigma F3917) were also included on each plate. After additions, cell plates were allowed to incubate at 37° C., 5% CO2, 90% Rh for 5.5-6 hours. After incubation, media were removed, and cell plates were washed 1×50 μL with DPBS w/o Ca & Mg (Mediatech 21-031-CV). Into dry wells, 20 μL of 1×Reporter Lysis Buffer (Promega E3971 (diluted in dH2O from 5× stock)) was added to each well and plates frozen at −20° C. overnight. For β-galactosidase enzyme colorimetric assay, plates were thawed out at room temperature and 20 μL 2× assay buffer (Promega) was added to each well. Color was allowed to develop at 37° C., 5% CO2, 90% Rh for 1-1.5 h or until reasonable signal appeared. The colorimetric reaction was stopped with the addition of 60 μL/well 1M sodium carbonate. Plates were counted at 405 nm on a SpectraMax Microplate Reader (Molecular Devices). Data was analyzed in Microsoft Excel and IC/EC50 curves were fit using a standardized macro.

SMILES | IC50 [1] | IC50 [2] | A1/A2A [2]
CC(=O)C1(c2ccccc2)CCN(c2cccc3c2-c2nc(N)nc(-c4ccccc4)c2C3=O)CC1 [Example 25, 9-(4-Acetyl-4-phenyl-piperidin-1-yl)-2-amino-4-phenyl-indeno[1,2-d]pyrimidin-5-one] | 220 nM | 4.2 nM | 52.381
Nc1nc(-c2ccccc2)c2c(n1)-c1c(cccc1N1CCN(c3ccc(F)cc3F)CC1)C2=O [Example 6, 2-Amino-9-[4-(2,4-difluoro-phenyl)-piperazin-1-yl]-4-phenyl-indeno[1,2-d]pyrimidin-5-one] | 2900 nM | 2.6 nM | 1115.38
C=CCN1CCN(c2cccc3c2-c2nc(N)nc(-c4ccccc4)c2C3=O)CC1 [Example 23, 9-(4-Allyl-piperazin-1-yl)-2-amino-4-phenyl-indeno[1,2-d]pyrimidin-5-one] | 748 nM | 12.5 nM | 60.0758
N#Cc1ccc(N2CCN(c3cccc4c3-c3nc(N)nc(-c5ccccc5)c3C4=O)CC2)cc1 [Example 3, 4-[4-(2-Amino-5-oxo-4-phenyl-5H-indeno[1,2-d]pyrimidin-9-yl)-piperazin-1-yl]-benzonitrile] | 3500 nM | 0.6 nM | 5833.33
Nc1nc(-c2ccccc2)c2c(n1)-c1c(cccc1N1CCC(O)(c3ccccc3)CC1)C2=O [Example 13, 2-Amino-9-(4-hydroxy-4-phenyl-piperidin-1-yl)-4-phenyl-indeno[1,2-d]pyrimidin-5-one] | 310 nM | 0.67 nM | 462.687
NC(=O)c1ccc(C2CCN(c3cccc4c3-c3nc(N)nc(-c5ccccc5)c3C4=O)CC2)cc1 [Example 20, 4-[1-(2-Amino-5-oxo-4-phenyl-5H-indeno[1,2-d]pyrimidin-9-yl)-piperidin-4-yl]-benzamide] | 150 nM | 1.5 nM | 100

Source: patent publication US20110105493A1, “HETEROCYCLYL SUBSTITUTED ARYLINDENOPYRIMIDINES AND THEIR USE AS HIGHLY SELECTIVE ADENOSINE A2a RECEPTOR ANTAGONISTS” (priority 2009, published 2011)
